In US20220287345A1, “SOLUBILITY ENHANCEMENT OF POORLY SOLUBLE ACTIVES” (Evonik Operations GmbH, priority 2019, published 2022):
In brackets after ≈: the same amount, converted by molar mass.

Assay: physchem
Details: for solubility: water, thermodynamic from solid
Protocol: Analysis of the blend was done and its solubility in water was analyzed (table 3).
All the tablets prepared as shown in table 8 were analyzed in water to check whether there is an enhancement in solubility of the drug when compared to the pure form (table 9).
The compressed tablets prepared according table 13 were analyzed in water to check whether there is any enhancement in solubility of the drug when compared to the pure form (table 14).
All the blends and tablets prepared according to table 15 were analyzed in water for any enhancement in solubility of the drug when compared to the pure form.
The capsules were further analyzed for water solubility of the active ingredient.
The solution was spray dried using a spray drier (Inlet temperature: 55-60° C., Aspirator: 90-100%).

Row | SMILES | solubility | Solubility of AFI/API in water
1 | NC(=O)N1c2ccccc2C=Cc2ccccc21 [Experiment C-9, Carbamazepine] | 240 µg/mL (≈ 1020 µM) | –
2 | COc1cc(/C=C/C(=O)CC(=O)/C=C/c2ccc(O)c(OC)c2)ccc1O [Experiment C-4, Curcumin] | – | 0.0 µg/mL
3 | Cc1ccc(S(=O)(=O)NC(=O)NN2CC3CCCC3C2)cc1 (centres unmarked) [Experiment C-8, Gliclazide] | 21 µg/mL (≈ 64.9 µM) | –
4 | O=c1c(O)c(-c2ccc(O)c(O)c2)oc2cc(O)cc(O)c12 [Experiment C-6, Quercetin] | 3.6 µg/mL (≈ 11.9 µM) | –
5 | Cc1ccc(-c2cc(C(F)(F)F)nn2-c2ccc(S(N)(=O)=O)cc2)cc1 [Experiment C-1, Celecoxib] | 0.1 µg/mL (≈ 0.262 µM) | –
